From the NIST ThermoML archive (doi:10.1016/j.fluid.2004.07.015)

Details: 101.33 kPa, Liquid

CCCCn1cc[n+](C)c1.F[P-](F)(F)(F)(F)F [1-butyl-3-methylimidazolium hexafluorophosphate]
Details	mass density [kg/m3]
289.1 K	1372.6
291.1 K	1370.8
293.1 K	1369.1
295.1 K	1367.4
297.05 K	1365.8
299.1 K	1364.1
301.05 K	1362.4
303.15 K	1360.6
305.1 K	1359
307.15 K	1357.3
309.15 K	1355.6
